Laboratory results from PMC9854410, “Targeted isolation of antitubercular cycloheptapeptides and an unusual pyrroloindoline-containing new analog, asperpyrroindotide A, using LC–MS/MS-based molecular networking” (Marine Life Science & Technology, 2023).
≈ marks a conversion by molar mass, not a printed value. Marks after values point to notes of the source that are not given here. Starred links: 1 amine or outer side, 2 acyl side, 3 side chain; linkers in the order of their positions; H or OH if unused. Non-standard residues stand in square brackets, D forms with d. Residues, ends and D or L forms follow the SMILES beside them. X1 = O=C([C@H]1C[C@]2(O)c3ccccc3N[C@@H]2N1[*:1])[*:2]

Tests used:
[1] = tested on: Mycobacterium marinum; parameters: method as in Hou et al. [2019b]; conditions: previous research; positive controls rifampin, streptomycin, isoniazid; ref Hou et al. [2019b]; cited from earlier work
[2] = tested on: Mycobacterium tuberculosis H37Ra (ATCC 25,177); assay: microbe, parasite or virus in culture; assay type: cell-based; conditions: microplate Alamar Blue assay; for inhibitory activity against M. tuberculosis H37Ra at a single concentration: at a concentration of 100 μg/mL
Protocol: Anti-mycobacterial activity was determined against Mycobacterium tuberculosis H37Ra (ATCC 25,177) in a microplate Alamar Blue assay system (Collins et al. [1997]). The anti-tubercular drug rifampin was used as a positive control.

[3] = tested on: Mycobacterium tuberculosis H37Ra (ATCC 25,177); conditions: reported data; ref Hou et al. 2019; cited from earlier work
Source text: Supplement 42995_2022_157_MOESM1_ESM.docx, table 2: Table S2. Antitubercular activity of compounds 1, 8−19 and previously reported 2, 20−23 against Mycobacterium tuberculosis H37Ra | column: MICs (μmol/L)

Compound	minimum inhibitory concentrations (MICs) against Mycobacterium marinum [1] [µM]	MICs (μg/mL) against Mycobacterium tuberculosis H37Ra ([2]; rifampin as positive control) [µg/mL]	also measured
NNC(=O)c1ccncc1 [isoniazid, reference compound]	88.5 (≈ 12.1 µg/mL)		
CC(C)[C@H]1NC(=O)[C@H](Cc2ccccc2)NC(=O)[C@@H](C(C)C)NC(=O)[C@@H](C)NC(=O)[C@H](C)NC(=O)[C@H]2C[C@]3(O)c4ccccc4N[C@@H]3N2C(=O)[C@@H](CO)NC1=O [Compound 9] (cyclo([X1]A[dA][dV]F[dV][dS]))		> 100	inhibitory activity against M. tuberculosis H37Ra at a single concentration [2]: None of them showed obvious inhibitory activity
asperversiamide B [Compound 2]	81.2		MICs (μmol/L) against Mycobacterium tuberculosis H37Ra [3]: 100 ^b μmol/L
asperversiamide C [Compound 3]	87.5		
CC(C)[C@H]1NC(=O)[C@H](Cc2ccccc2)NC(=O)[C@@H](C(C)C)NC(=O)[C@@H](C)NC(=O)[C@H](CO)NC(=O)[C@H]2C[C@]3(O)c4ccccc4N[C@@H]3N2C(=O)[C@@H](CO)NC1=O [Compound 8, asperpyrroindotide A] (cyclo([X1]S[dA][dV]F[dV][dS]))		> 100	inhibitory activity against M. tuberculosis H37Ra at a single concentration [2]: None of them showed obvious inhibitory activity
[H]/N=C(/N)N[C@H]1[C@H](O)[C@@H](O)[C@H](O[C@@H]2O[C@@H](C)[C@](O)(C=O)[C@H]2O[C@@H]2O[C@@H](CO)[C@H](O)[C@@H](O)[C@@H]2NC)[C@@H](N/C(N)=N\[H])[C@@H]1O [streptomycin, reference compound]	20.1 (≈ 11.7 µg/mL)		
CO[C@H]1/C=C/O[C@@]2(C)Oc3c(C)c(O)c4c(O)c(c(/C=N/N5CCN(C)CC5)c(O)c4c3C2=O)NC(=O)/C(C)=C\C=C\[C@H](C)[C@H](O)[C@@H](C)[C@@H](O)[C@@H](C)[C@H](OC(C)=O)[C@@H]1C [rifampin, reference compound]	19.0 (≈ 15.6 µg/mL)		MIC ([2]; Mycobacterium tuberculosis, rifampin as positive control, read-out: MICs (μg/mL) against Mycobacterium tuberculosis H37Ra): 0.0156 µg/mL (≈ 0.019 µM)
CC(C)[C@H]1NC(=O)[C@H](Cc2ccccc2)NC(=O)[C@@H](C(C)C)NC(=O)[C@@H](C)NC(=O)[C@H](CO)NC(=O)[C@@H](Cc2c[nH]c3ccccc23)NC(=O)[C@@H](CO)NC1=O [Compound 1, asperversiamide A] (cyclo([dV][dS][dW]S[dA][dV]F))	23.4 (≈ 18.2 µg/mL)	> 100	
